Measured values from patent publication US10709791B2, “Stabilized polymeric carriers for therapeutic agent delivery” (University of Washington, priority 2014, dated 2020).
Square brackets hold non-standard residues; d marks the D form. Peptide text beside a SMILES is read from it. * marks the point of attachment. Methacryloyl = C=C(C)C(=O)*; Ahx = NCCCCCC(=O)O

Assays:
[1] = target: butyrylcholinesterase (BChE) (Homo sapiens, UniProt P06276); details: buffer with BChE, relative to buffer alone
Description: The drug release studies were conducted at 37° C. and free drug detection was quantified using an elution gradient profile at 277 nm.
Recombinant human butyrylcholinesterase (BChE) was obtained from R&D systems.

Human liver cathepsin B = target: T1, Human liver cathepsin B (Homo sapiens, UniProt P07858); assay: Cathepsin B cleavage assay; format: biochemical; details: for cathepsin B cleavage of FKFL linker and peptide release: RP-HPLC and MS
T1 construct: purchased Enzo Life Sciences; host or cells: human liver
Description: Human liver cathepsin B (Enzo Life Sciences) was activated for 15 minutes in a solution of 0.158 mg/mL cathepsin B, 20 mM DTT, and 10 mM EDTA at 37° C. Peptide or polymer was then solubilized in reaction buffer (10 mM phosphate, 1 mM EDTA, pH 6.6, 37° C.) and added to the enzyme solution for a final concentration of 1.28 μg/mL cathepsin B and […] peptide/polymer. […] Cleavage of the polymers was also visualized by SDS-PAGE on 8-16% Tris-Glycine Gels (Bio-Rad). For protein gel analyses, reactions were conducted at 3× concentration and 160 μg of polymer was loaded per well.

[2] = test system: SKOV3 human ovarian cancer cells; details: 10 μM, 72 hours
Description: Induction of apoptosis was measured with a FITC Annexin V/Dead Cell Apoptosis Kit (Invitrogen) as per the manufacturer's instructions. SKOV3s cells were plated in 6-well plates at a density of 120,000 cells per well and treated with 10 μM polymer solutions for 72 hours. After 72 hours, cells were trypsinized, rinsed in PBS, centrifuged, stained with FITC-annexin V, and analyzed on a BD LSRII flow cytometer.

caspase 3/7 = details: 10 μM, 72 hours
Description: Caspase 3/7 activity was measured using a SensoLyte Homogenous AMC Caspase-3/7 Assay Kit (AnaSpec). SKOV3 cells were plated in a black 96-well plate with a clear bottom at a density of 7,000 per well and then treated with polymer (0-10 μM) for 72 hours. Assay reagents were mixed with cell culture medium as per the manufacturer's instructions, incubated for 24 hours, and fluorescence (ex/em=380 nm/500 nm) was measured using a plate reader. Percent caspase 3/7 activity was calculated relative to untreated cell cultures.

[3] = human serum, 37° C., at 120 h
Description: The drug release studies were conducted at 37° C. and free drug detection was quantified using an elution gradient profile at 277 nm. The studies were conducted with deprotected monomers and polymers.
HPLC was used to quantify drug release by detecting free drug as a function of time normalized to amount of drug present during initial incubation. This in turn was standardized to the total available drug in the system as quantified by dissolving a known amount of polymer in 10% aq. H2SO4 for 48 h at 25° C. Using a Cipro standard curve, the total amount of drug in the polymers was validated against compositional values obtained from ^19F NMR. […]
Absorbance Detector, and Agilent ChemStation software for LC system (Palo Alto, Calif.). […]
Both non-serum (mobile phase:deionized water) and serum standards were subsequently treated with 50% acetonitrile (v/v) to promote protein precipitation. […] Non-serum standards were analysed without the need for centrifugation. […]
The drug release from polymer conjugates was carried out in serum at 37° C. at a polymer concentration of 6 mg/mL. […] Quantification of total Cipro in the polymer conjugates was measured by taking 6 mg/mL of polymer and dissolving it in 10% aq. […] The HPLC with a gradient elution profile was used to quantify amount of drug released using the same instrument parameters set forth for drug standards. […]

[4] = Serum stability of peptide macromonomers and polymers; format: in vitro ADME, human; details: 37° C., 0 to 12 hours, MALDI-TOF MS
Description: The stability of the peptide (FKFL) linker in the presence of serum proteases was evaluated by incubating the peptide monomers and polymers in human serum and analyzing the degradation products over time. Peptide (40 mM, DMSO) or polymer (4 mM, PBS) was added to human serum to a final peptide/polymer concentration of 400 μM and incubated at 37° C. At various time points, 40 μL aliquots of the mixture were withdraw and 40 μL of acetonitrile was added to precipitate serum proteins and halt protease degradation. Precipitated solutions were centrifuged at 13,000 rpm for 10 min and supernatants were analyzed by MALDI-TOF MS using a Bruker Autoflex II.

Chain of butyrylcholinesterase (BChE) (P06276 29-602): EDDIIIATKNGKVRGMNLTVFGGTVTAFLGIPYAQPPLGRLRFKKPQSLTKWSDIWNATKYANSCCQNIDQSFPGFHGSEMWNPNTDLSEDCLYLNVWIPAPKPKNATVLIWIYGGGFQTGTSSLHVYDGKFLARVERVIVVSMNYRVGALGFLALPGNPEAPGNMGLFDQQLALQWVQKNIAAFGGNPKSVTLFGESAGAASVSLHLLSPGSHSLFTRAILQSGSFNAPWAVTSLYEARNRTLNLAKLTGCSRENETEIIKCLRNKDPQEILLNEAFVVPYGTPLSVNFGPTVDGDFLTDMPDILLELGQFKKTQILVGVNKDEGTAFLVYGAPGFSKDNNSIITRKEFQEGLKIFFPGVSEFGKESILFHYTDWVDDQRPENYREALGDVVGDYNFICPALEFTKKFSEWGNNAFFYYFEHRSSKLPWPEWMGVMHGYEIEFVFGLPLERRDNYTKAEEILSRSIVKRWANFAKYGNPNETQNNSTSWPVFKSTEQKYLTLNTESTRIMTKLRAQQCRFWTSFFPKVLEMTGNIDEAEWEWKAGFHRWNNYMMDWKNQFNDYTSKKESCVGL

## ciprofloxacin-(phenol)methacrylate [CPM]
[1]
  effect of added BChE on ester hydrolysis: increases hydrolysis

## poly[(DEAEMA)-co-(BMA)]-b-[(PEGMA300)-c-(MaAhxFKFLAhxScrBIM)] [PolScrBIM]
Human liver cathepsin B
  cathepsin B cleavage of FKFL linker and peptide release: release the desired (2980 Da) peptide product
[2]
  cells staining positive for annexin V: 15%
Caspase 3/7
  caspase 3/7 activity relative to untreated cells: no change

## C=C(C)C(=O)OCCOC(=O)c1cn(C2CC2)c2cc(N3CCN(C(=O)OC(C)(C)C)CC3)c(F)cc2c1=O [HBC, (hydroxyethyl)methacrylate-boc-ciprofloxacin]
[3]
  drug release: ~50%
[1]
  effect of added BChE on ester hydrolysis: increases hydrolysis

## poly[(DEAEMA)-co-(BMA)]-b-[(PEGMA300)-c-(MaAhxFKFLAhxBIM)] [PolBIM]
Human liver cathepsin B
  cathepsin B cleavage of FKFL linker and peptide release: release the desired (2980 Da) peptide product
[2]
  cells staining positive for annexin V: 87%
Caspase 3/7
  caspase 3/7 activity relative to untreated cells: more than 8 fold

## C=C(C)C(=O)NCCCCCC(=O)N[C@@H](Cc1ccccc1)C(=O)N[C@@H](CCCCN)C(=O)N[C@@H](Cc1ccccc1)C(=O)N[C@@H](CC(C)C)C(=O)NCCCCCC(=O)N[C@@H](CC(C)C)C(=O)N[C@@H](CCCNC(=N)N)C(=O)N[C@@H](CCSC)C(=O)N[C@@H](CCCNC(=N)N)C(=O)N[C@@H](CCC(=O)O)C(=O)N[C@H](C(=O)N[C@H](C(=O)N[C@@H](CC(=O)O)C(=O)N[C@@H](C)C(=O)N[C@@H](Cc1ccc(O)cc1)C(=O)N[C@@H](CCC(=O)O)C(=O)N[C@@H](CCCNC(=N)N)C(=O)N[C@@H](CCC(N)=O)C(=O)N[C@@H](Cc1ccccc1)C(=O)NCC(=O)N[C@@H](CCC(=O)O)C(=O)N1CCC[C@H]1C(=O)N[C@@H](CC(N)=O)C(=O)N[C@H](C(=O)N[C@@H](Cc1c[nH]c2ccccc12)C(=O)N[C@@H](C)C(N)=O)[C@@H](C)CC)[C@@H](C)CC)[C@@H](C)CC [MaAhxFKFLAhxScrBIM] ({Methacryloyl-Ahx}-FKFL[Ahx]LRMREIIDAYERQFGEPNIWA-NH2)
Human liver cathepsin B; by 20 minutes
  cleavage at the FKFL linker: 100%
[4]
  stability of the FKFL linker in human serum: intact peptide monomer (3437 Da) was detectable after 12 hours
